From PubChem BioAssay (NCI) come the findings set out here.

Some test systems named below: HCT-15 colon; HOP-62 NSCLC; HOP-92 NSCLC; HT29 colon; IGROV1 ovarian; KM12 colon; NCI-H226 lung; NCI-H460 lung; OVCAR-5 ovarian; RPMI-8226 leukemia; SF-295 CNS; SK-MEL-28 melanoma; SK-OV-3 ovarian; SNB-75 CNS; SW-620 colon; UACC-257 melanoma; UACC-62 melanoma; UO-31 renal; HL-60(TB) leukemia; SF-539 CNS.
What all share (assay): inhibition of tumour cell growth, NCI panel, 48 h

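Tested at 5 concentrations; 48 h exposure; 96-well plates; endpoints linearly interpolated, else capped at highest concentration. TGI denotes the concentration required for complete inhibition of growth.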 Bounds are passed on as bounds.

Take `COC(=O)[C@@H]1C=C[C@H](NC(C)=O)C1`: the TGI in the test with HCT-15 colon, in the test on HOP-62 NSCLC, in the test with HOP-92 NSCLC, with HT29 colon, in the test on IGROV1 ovarian and in the test with KM12 colon was greater than 100 µM in each case. Moreover, the TGI in the test on NCI-H226 lung, with NCI-H460 lung, in the test with OVCAR-5 ovarian, in the test with RPMI-8226 leukemia, with SF-295 CNS and in the test with SK-MEL-28 melanoma was greater than 100 µM each time. Moreover, the TGI in the test with SK-OV-3 ovarian, in the test on SNB-75 CNS, with SW-620 colon, with UACC-257 melanoma, in the test with UACC-62 melanoma and in the test on UO-31 renal was greater than 100 µM each time.

Turning to `Cn1c(=O)n(CC2CS2)c2ccccc21` (configuration not stated), the TGI with HCT-15 colon, with HL-60(TB) leukemia, with HOP-62 NSCLC, in the test on HOP-92 NSCLC, in the test on HT29 colon and in the test with IGROV1 ovarian was greater than 100 µM throughout. Besides, the TGI in the test with KM12 colon, in the test on NCI-H226 lung, with NCI-H460 lung, in the test on OVCAR-5 ovarian, with RPMI-8226 leukemia and in the test on SF-295 CNS was greater than 100 µM throughout. Besides, the TGI in the test with SF-539 CNS, in the test on SK-MEL-28 melanoma, in the test on SK-OV-3 ovarian, with SNB-75 CNS, in the test on SW-620 colon and in the test with UACC-62 melanoma was greater than 100 µM throughout. In addition, in the test with UO-31 renal, the TGI was greater than 100 µM.

Turning to `CCN(CC)/[N+]([O-])=N/O`, the TGI in the test on HCT-15 colon, with HL-60(TB) leukemia, in the test on HOP-62 NSCLC, with HOP-92 NSCLC, in the test with HT29 colon and in the test with IGROV1 ovarian was greater than 100 µM each time. The TGI in the test on KM12 colon, in the test on NCI-H226 lung, with NCI-H460 lung, in the test with OVCAR-5 ovarian, in the test with SF-295 CNS and with SF-539 CNS was greater than 100 µM throughout. Also, the TGI in the test on SK-MEL-28 melanoma, with SK-OV-3 ovarian, in the test with SW-620 colon, with UACC-257 melanoma, with UACC-62 melanoma and in the test on UO-31 renal was greater than 100 µM in each case.

Take `CCN(CCCl)c1cccc(NC(=O)c2ccc(C(=O)Nc3cccc(CN(C)C)c3)cc2)c1`: the TGI in the test with HCT-15 colon stood at 6.58 µM; in the test on HL-60(TB) leukemia, 12.7 µM; with HOP-62 NSCLC it was 6.14 µM; with HOP-92 NSCLC it was 1.6 µM; with IGROV1 ovarian, 1.13 µM; in the test with NCI-H460 lung, 1.36 µM. The TGI in the test on OVCAR-5 ovarian was 32 µM; with RPMI-8226 leukemia, 27 µM; in the test with SF-295 CNS, 13.2 µM; in the test with SF-539 CNS, 0.611 µM; in the test on SK-MEL-28 melanoma, 0.68 µM; with SK-OV-3 ovarian, 4.13 µM. The TGI with SNB-75 CNS worked out at 0.759 µM; in the test with SW-620 colon it was 11.9 µM; in the test with UACC-257 melanoma, 0.304 µM; in the test with UACC-62 melanoma, 0.309 µM; in the test on UO-31 renal, 1.81 µM.
